Test results published in patent publication US5985856A, “Water soluble prodrugs of secondary and tertiary amine containing drugs and methods of making thereof” (University of Kansas, priority 1998, dated 1999).
≈ marks a conversion by molar mass, not a printed value. Where two headings read alike, the source gives them in different places.

Legend:
[1] = Pharmacokinetic evaluation of cinnarizine plasma concentration after i.v. injection; conditions: male beagle dog
Method: (§1) Cinnarizine for i.v. injection was prepared in a 10 mM phosphate buffer solution at pH 4.5 at a concentration of 12.5 mg/10 ml (3.39 mM) along with 37.5 mM sulfobutylether 4 beta-cyclodextrin as a solubilizing excipient. The cyclodextrin solution (10 ml) was prepared first and the pH adjusted to 3.5 with HCl. The cinnarizine was then added and the solution was sonicated for three hours and subsequently stirred overnight. The pH was then adjusted to 4.5 with NaOH along with the addition of 29 mg of NaCl to adjust for isotonicity. The solution was then passed through a 0.22 μM nylon-membrane filter just prior to administration. The prodrug injection was prepared by dissolving 16.97 mg or cinnarizine prodrug in 10 ml of 0.9% NaCl sterile solution (3.39 mM) for injection. The solution was passed through a 0.22 μM nylon-membrane filter just prior to injection.
(§2) The evaluation of the cinnarizine plasma concentration versus time was conducted with a male beagle dog weighing 11.1 kg. The dog received the cinnarizine injection followed by a two-week washout period then received the prodrug injection in an equal molar quantity. Samples were taken from the dog prior to dosing (10 ml blank plasma) and 2, 6, 10, 20, 40 min and 1, 2, 4, 6, 8, 24 hours post-dosing (3 ml each). Blood samples were drawn from either cephalic, saphenous, or jugular vein. The samples were centrifuged for 10 minutes and 1 ml of plasma was measured and frozen at -20° C. prior to sampling by HPLC. The dog received a regular diet between experiments and was fasted the day of the experiment.
(§3) Plasma concentrations of cinnarizine were determined by HPLC with fluorescence detection. To each one milliliter of plasma was added: 100 μL of acetonitrile-H2O (70:30, v/v), containing 40 μg meclizine (internal standard), and 100 μL of 0.5 M HCl. The plasma sample was then vortexed for 30 seconds. One ml of carbon tetrachloride was then combined with the sample for an additional one minute of vortexing. Samples were then centrifuged for ten minutes after which the carbon tetrachloride was removed and evaporated to dryness under a stream of dry nitrogen. The residue was then redissolved in 200 μL of acetonitrile-H2 O (70:30, v/v) prior to sampling by HPLC. The results were calculated from peak area ratios. A six-point standard curve was obtained using the above procedure with addition of cinnarizine concentrations in the range of 5.5 to 550 ng/ml of plasma. A three-point calibration was performed on the day of the study using high, medium and low cinnarizine concentrations. This calibration was used for the quantification of cinnarizine concentration in the samples.
(§4) The HPLC system consisted of a Shimadzu LC-6A pump (Kyoto, Japan), a Rheodyne 7125 injector (Cotati, Calif.), a Shimadzu RF-535 Fluorescence HPLC monitor (Kyoto, Japan), and a Shimadzu CR-601 integrator (Kyoto, Japan). The HPLC conditions were as follows: injection volume, 50 μL; flow rate, 1.5 ml/min; excitation at 260 nm and emission at 315 nm. The stationary phase was a C18 ODS Hypersil reverse phase column (15 cm×4.6 mm i.d., 5 μM). The mobile phase was a 7 to 3 ratio of aceronitrile to buffer, respectively. The buffer consisted of 25 mmole potassium dihydrogen phosphate (adjusted to pH 3.9 with phosphoric acid) and 10 mM tetrabutyl ammonium dihydrogen phosphate.
(§5) Pharmacokinetic analysis was performed on the semilogarithmic plot of cinnarizine plasma concentration versus time post dosing for both the cinnarizine and cinnarizine prodrug injections. […] The equation had the form: C=A1e^-A1t +A2e^-A2t +A3e^-A3t, where t is time. Plasma terminal half life (t1/2) is calculated from t1/2 =0.693/λ3.

in vivo = conditions: dog, iv
Method: as §1, §2, §3, §4, §5

[2] = dog, in vivo
Method: as §1, §2, §3, §4, §5

[3] = Preliminary visual solubility estimates of synthesized prodrugs; format: physicochemical; conditions: preliminary visual estimate, pH 7.4
From the text: The present prodrugs are designed to increase the aqueous solubility and safety of amine-containing drugs. Preliminary visual solubility estimates for each of the prodrugs are listed below in Table 2.

physchem [4] = format: physicochemical; conditions: for solubility: 24 h
Method: Each pH solution contains 0.05 M buffer with an ionic strength adjusted to μ=0.2 with NaCl. The pH 3 buffer composition is HCl/CH3 COONa; whereas, the pH 7.4 buffer composition is NaH2 PO4 /Na2 HPO4. The volume of buffer used in the experiments is 150 μl. To this is added excess of the loxapine prodrug in one ml glass screw top vials. The vials are then capped, sonicated and vortexed prior to submersion in a constant temperature shaking water bath at 25° C. The samples are shaken at a rate of 100 shakes/min. for at least 24 hours. The suspensions are then placed in a micro centrifuge to precipitate the excess drug. A volume of 50 μl of the supernatant is then appropriately diluted with water for quantification by reverse phase HPLC. […] A C-18 reversed phase column (150×4 mm, ODS Hypersil, 5 μm particle size) is used for the analysis. The HPLC assays are carried out using UV detection at 254 nm. The mobile phase consists of acetonitrile and 25 mM of aqueous potassium phosphate monobasic solution adjusted to pH 3.8 with phosphoric acid. 0.15% of triethylamine is contained in the aqueous buffer. The ratio of organic:aqueous is 32:68. The retention time is 4.2 min. when the flow rate is adjusted to 1 ml/min.

[5] = pKa determination by 31P NMR method; conditions: 10% d2o in h2o
physchem [6] = format: physicochemical; conditions: water
Method: A 0.01 M quinuclidine prodrug aqueous solution is titrated using a burette containing a 0.1 N sodium hydroxide volumetric standard solution obtained from Aldrich Chemical Company (Milwaukee, Wis.). […] This experiment is conducted at 25° C.
The first ionization constant, Ka1, is expected to be low and to be of little physiological importance; however, Ka2 is of much greater importance. With this in mind, the second ionization constant (Ka2) for the phosphate monoester promoiety of the quinuclidine was determined by two methods. These methods were potentiometric titration and ^31 P NMR. The potentiometric titration is by far the most traditional and accepted means for estimating pKa values; however, it has one main disadvantage. It requires significant quantities of, difficult to synthesize, prodrug. The quinuclidine prodrug is, by far, the simplest prodrug to synthesize and was chosen for the following experiments for that reason. For the potentiometric titration method, the volume of base added was plotted against the change in pH. This plot allows one to determine the volume of base required to reach the endpoint of the titration.

physchem [7] = conditions: 10% d2o in h2o
physchem [8] = format: physicochemical
Method: Loxamine succinate is obtained from Research Biochemicals Incorporated (Natick, Mass.). […] Each pH solution is a 0.05 M buffered solution with an ionic strength adjusted to μ=0.2 with NaCl. The pH values along with their buffer composition are listed: pH 3.24, HCl/CH3 COONa; pH 3.96 and 4.96, CH3 COOH/CH3 COONa; pH 5.82-7.94, NaH2 PO4 /Na2 HPO4; pH 8.95 and 9.98, H3 BO3 /NaOH. The volume of buffer used in the experiments varies; samples with pH equal to or below 4.96 utilize 2 ml of buffer whereas the higher pH samples has a volume of 5 ml. […] The vials are then capped, sonicated and vortexed prior to submersion in a constant temperature shaking water bath at 25° C. The samples are shaken at a rate of 100 shakes/min. for at least 24 hours. […] The filtrates/supernatants are then appropriately diluted for quantification by HPLC. […] A C-18 reversed phase column (150×4 mm, ODS Hypersil, 5 μm particle size) is used for the analysis. The HPLC assays are carried out using UV detection at 254 nm. The mobile phase consists of acetonitrile and 25 mM of aqueous potassium phosphate monobasic solution adjusted to pH 3.8 with phosphoric acid. 0.15% of triethylamine is contained in the aqueous buffer.

[9] = 0.05 m hcl/ch3coona buffer, pH 3
[10] = 0.05 m nah2po4/na2hpo4 buffer, pH 7.4

Which “observable signs of discomfort or toxicity after injection” value [1] does the source give for C(=C\c1ccccc1)/CN1CCN(C(c2ccccc2)c2ccccc2)CC1 [Cinnarizine] here?
Its value is “no observable signs of discomfort or toxicity”.

And the Vd (in vivo)?
The Vd was 21.7 L/kg.

And the clearance (in vivo)?
The clearance was 19.5 mL/min/kg.

And the half-life (in vivo)?
Its half-life is 12 h.

Which results are given for O=P([O-])(O)OC[N+]1(C/C=C/c2ccccc2)CCN(C(c2ccccc2)c2ccccc2)CC1 [cinnarizine prodrug]?
observable signs of discomfort or toxicity after injection [1]: no observable signs of discomfort or toxicity; conversion of prodrug to cinnarizine upon intravenous administration [2]: rapidly and quantitatively converted to cinnarizine; Cl ([2]; iv): 19.5 mL/min/kg; Vd ([2]; iv): 21.2 L/kg; t1/2 (plasma terminal half life of cinnarizine) ([2]; iv): 12.6 h; solubility [3]: > 5 mg/mL

Which solubility (physchem [4]; [9]) does the source give for C[N+]1(COP(=O)([O-])O)CCN(C2=Nc3ccccc3Oc3ccc(Cl)cc32)CC1 [loxapine prodrug] here?
The solubility was 290.5 ± 2.9 mg/mL (≈ 664 mM).

What about the solubility at 24 h (physchem [4]; [9]) of the same compound?
Its solubility at 24 h is 290.5 ± 2.9 mg/mL (≈ 664 mM).

What about the solubility (physchem [4]; [10]) of the same compound?
Its solubility is 648.2 ± 0.6 mg/mL (≈ 1480 mM).

What about the solubility at 24 h (physchem [4]; [10]) of the same compound?
Its solubility at 24 h is 648.2 ± 0.6 mg/mL (≈ 1480 mM).

And the “solubility limit relative to the concentration used in the parenteral formulation (50 mg/ml loxapine)” value (physchem [4]; without cosolvents)?
Its value is 9.7 times.

What about the pKa [5] of the same compound?
The pKa was 4.7.

And the solubility [3]?
Its solubility is > 600 mg/mL.

Which results are given for O=P([O-])(O)OC[N+]12CCC(CC1)CC2 [quinuclidine prodrug]?
pKa (physchem [6]): 5; pKa (physchem [7]): 4.9

Which solubility [3] does the source give for CCCCc1oc2ccccc2c1C(=O)c1cc(I)c(OCC[N+](CC)(CC)COP(=O)([O-])O)c(I)c1 [amiodarone prodrug] here?
The solubility was > 5 mg/mL.

Which solubility (physchem [8]; 0.05 m buffer, aqueous buffer) does the source give for CN1CCN(C2=Nc3ccccc3Oc3ccc(Cl)cc32)CC1 [Loxapine free base, Loxapine] here?
The solubility was 0.0126 mg/mL (≈ 0.0384 mM).

And the solubility (physchem [8]; hcl/ch3coona buffer, pH 3.24)?
The solubility was 8.23 mg/mL (≈ 25.1 mM).
